Key:
[1] = Toxicity against Aphidius colemani assessed as mortality at 400 mg/l, po after 24 hr relative to control; format: organism-based; details: in vivo
Aphidius colemani [2] = assay: Drug uptake in Aphidius colemani at 400 mg/l treated as spraying; format: ADME, organism-based; details: in vivo, topical_or_ocular
[3] = Toxicity against Aphidius colemani assessed as mortality at 400 mg/l, po after 24 hr; format: organism-based; details: in vivo
Aphidius colemani [4] = assay: Drug uptake in Aphidius colemani at 400 mg/l treated as dipping; format: ADME, organism-based; details: in vivo, topical_or_ocular
[5] = Contact toxicity against Aphidius colemani assessed as mortality at 400 mg/l after 24 hr relative to control; format: organism-based; details: in vivo, other: contact
[6] = Contact toxicity against Aphidius colemani assessed as mortality at 400 mg/l after 24 hr; format: organism-based; details: in vivo, other: contact
Leaf [7] = assay: Drug level in Cucumis sativus (cucumber) leaf assessed as deposition in leaf at 10 mg/l; format: ADME
[8] = Residual toxicity against Aphidius colemani in strawberry leaf assessed as mortality at 50 mg/l leaves collected after 20 days of application measured after 24 hr relative to control; format: organism-based; details: in vivo
[9] = Toxicity against Aphidius colemani in strawberry leaf assessed as mortality at 1 mg/l treated as spraying after 48 hr relative to control; format: organism-based; details: in vivo, other: spraying
Leaf [10] = assay: Drug level in Fragaria x ananassa (strawberry) leaf assessed as deposition in leaf at 1 mg/l; format: ADME
Leaf [11] = assay: Drug level in Cucumis sativus (cucumber) leaf assessed as deposition in leaf at 5 mg/l; format: ADME
[12] = Drug level in Fragaria x ananassa (strawberry) leaf at 50 mg/l leaves after 5 days; format: ADME; details: read-out: Drug uptake
[13] = Toxicity against Aphidius colemani in kidney bean leaf assessed as mortality at 8.3 mg/l treated as spraying after 48 hr relative to control; format: organism-based; details: in vivo
[14] = Toxicity against Aphidius colemani in kidney bean leaf assessed as mortality at 1 mg/l treated as spraying after 24 hr relative to control; format: organism-based; details: in vivo
[15] = Toxicity against Aphidius colemani assessed as mortality at 100 mg/l, po after 24 hr relative to control; format: organism-based; details: in vivo
Leaf [16] = assay: Drug level in Cucumis sativus (cucumber) leaf assessed as deposition in leaf at 20 mg/l; format: ADME
[17] = Toxicity against Aphidius colemani in kidney bean leaf assessed as mortality at 83.3 mg/l treated as spraying after 24 hr relative to control; format: organism-based; details: in vivo, other: spraying
[18] = Toxicity against Aphidius colemani in kidney bean leaf assessed as mortality at 8.3 mg/l treated as spraying after 24 hr relative to control; format: organism-based; details: in vivo
[19] = Residual toxicity against Aphidius colemani in strawberry leaf assessed as mortality at 50 mg/l leaves collected after 40 days of application measured after 24 hr relative to control; format: organism-based; details: in vivo
[20] = Toxicity against Aphidius colemani in cucumber leaf assessed as mortality at 20 mg/l treated as spraying after 24 hr relative to control; format: organism-based; details: in vivo, other: spraying
[21] = Residual toxicity against Aphidius colemani in strawberry leaf assessed as mortality at 50 mg/l leaves collected after 30 days of application measured after 48 hr relative to control; format: organism-based; details: in vivo
[22] = Toxicity against Aphidius colemani in cucumber leaf assessed as mortality at 10 mg/l treated as spraying after 24 hr relative to control; format: organism-based; details: in vivo, other: spraying
[23] = Toxicity against Aphidius colemani in kidney bean leaf assessed as mortality at 1 mg/l treated as spraying after 48 hr relative to control; format: organism-based; details: in vivo
Leaf [24] = assay: Drug level in Phaseolus vulgaris (kidney bean) leaf assessed as deposition in leaf at 0.8 mg/l; format: ADME
[25] = Toxicity against Aphidius colemani in kidney bean leaf assessed as mortality at 0.8 mg/l treated as spraying after 24 hr relative to control; format: organism-based; details: in vivo
[26] = Contact toxicity against Aphidius colemani assessed as mortality at 100 mg/l after 24 hr relative to control; format: organism-based; details: in vivo, other: contact
[27] = Drug level in Fragaria x ananassa (strawberry) leaf at 50 mg/l leaves after 30 days; format: ADME; details: read-out: Drug uptake
[28] = Toxicity against Aphidius colemani in strawberry leaf assessed as mortality at 1 mg/l treated as spraying after 24 hr relative to control; format: organism-based; details: in vivo, other: spraying
[29] = Toxicity against Aphidius colemani in cucumber leaf assessed as mortality at 5 mg/l treated as spraying after 24 hr relative to control; format: organism-based; details: in vivo, other: spraying
[30] = Residual toxicity against Aphidius colemani in strawberry leaf assessed as mortality at 50 mg/l leaves collected after 20 days of application measured after 48 hr relative to control; format: organism-based; details: in vivo
Leaf [31] = assay: Drug level in Fragaria x ananassa (strawberry) leaf assessed as deposition in leaf at 5 mg/l; format: ADME
[32] = Toxicity against Aphidius colemani in kidney bean leaf assessed as mortality at 0.8 mg/l treated as spraying after 48 hr relative to control; format: organism-based; details: in vivo, other: spraying
Leaf [33] = assay: Drug level in Phaseolus vulgaris (kidney bean) leaf assessed as deposition in leaf at 100 mg/l; format: ADME
[34] = Toxicity against Aphidius colemani in cucumber leaf assessed as mortality at 10 mg/l treated as spraying after 48 hr relative to control; format: organism-based; details: in vivo, other: spraying
[35] = Drug level in Fragaria x ananassa (strawberry) leaf at 50 mg/l leaves after 20 days; format: ADME; details: read-out: Drug uptake
Leaf [36] = assay: Drug level in Phaseolus vulgaris (kidney bean) leaf assessed as deposition in leaf at 83.3 mg/l; format: ADME
Leaf [37] = assay: Drug level in Phaseolus vulgaris (kidney bean) leaf assessed as deposition in leaf at 1 mg/l; format: ADME
[38] = Residual toxicity against Aphidius colemani in strawberry leaf assessed as mortality at 50 mg/l leaves collected after 40 days of application measured after 48 hr relative to control; format: organism-based; details: in vivo
[39] = Residual toxicity against Aphidius colemani in strawberry leaf assessed as mortality at 50 mg/l leaves collected after 30 days of application measured after 24 hr relative to control; format: organism-based; details: in vivo
Leaf [40] = assay: Drug level in Phaseolus vulgaris (kidney bean) leaf assessed as deposition in leaf at 5 mg/l; format: ADME
[41] = Residual toxicity against Aphidius colemani in strawberry leaf assessed as mortality at 50 mg/l leaves collected after 5 days of application measured after 24 hr relative to control; format: organism-based; details: in vivo
Aphidius colemani [42] = assay: Drug uptake in Aphidius colemani at 100 mg/l treated as spraying; format: ADME, organism-based; details: in vivo, topical_or_ocular
[43] = Toxicity against Aphidius colemani in kidney bean leaf assessed as mortality at 5 mg/l treated as spraying after 24 hr relative to control; format: organism-based; details: in vivo
[44] = Toxicity against Aphidius colemani in kidney bean leaf assessed as mortality at 100 mg/l treated as spraying after 24 hr relative to control; format: organism-based; details: in vivo
[45] = Contact toxicity against Aphidius colemani assessed as mortality at 100 mg/l after 24 hr; format: organism-based; details: in vivo, other: contact
[46] = Toxicity against Aphidius colemani in cucumber leaf assessed as mortality at 5 mg/l treated as spraying after 48 hr relative to control; format: organism-based; details: in vivo
[47] = Toxicity against Aphidius colemani in kidney bean leaf assessed as mortality at 100 mg/l treated as spraying after 48 hr relative to control; format: organism-based; details: in vivo, other: spraying
[48] = Toxicity against Aphidius colemani in strawberry leaf assessed as mortality at 100 mg/l treated as spraying after 24 hr relative to control; format: organism-based; details: in vivo
[49] = Toxicity against Aphidius colemani in cucumber leaf assessed as mortality at 100 mg/l treated as spraying after 48 hr relative to control; format: organism-based; details: in vivo
[50] = Toxicity against Aphidius colemani in kidney bean leaf assessed as mortality at 5 mg/l treated as spraying after 48 hr relative to control; format: organism-based; details: in vivo
Leaf [51] = assay: Drug level in Phaseolus vulgaris (kidney bean) leaf assessed as deposition in leaf at 8.3 mg/l; format: ADME
[52] = Drug level in Fragaria x ananassa (strawberry) leaf at 50 mg/l leaves after 40 days; format: ADME; details: read-out: Drug uptake
[53] = Toxicity against Aphidius colemani in cucumber leaf assessed as mortality at 100 mg/l treated as spraying after 24 hr relative to control; format: organism-based; details: in vivo, other: spraying
[54] = Toxicity against Aphidius colemani in strawberry leaf assessed as mortality at 5 mg/l treated as spraying after 24 hr relative to control; format: organism-based; details: in vivo, other: spraying
[55] = Residual toxicity against Aphidius colemani in strawberry leaf assessed as mortality at 50 mg/l leaves collected after 10 days of application measured after 24 hr relative to control; format: organism-based; details: in vivo
[56] = Residual toxicity against Aphidius colemani in strawberry leaf assessed as mortality at 50 mg/l leaves collected after 5 days of application measured after 48 hr relative to control; format: organism-based; details: in vivo
[57] = Residual toxicity against Aphidius colemani in strawberry leaf assessed as mortality at 50 mg/l leaves collected after 10 days of application measured after 48 hr relative to control; format: organism-based; details: in vivo
[58] = Drug level in Fragaria x ananassa (strawberry) leaf at 50 mg/l leaves after 10 days; format: ADME; details: read-out: Drug uptake
[59] = Toxicity against Aphidius colemani in strawberry leaf assessed as mortality at 100 mg/l treated as spraying after 48 hr relative to control; format: organism-based; details: in vivo
Leaf [60] = assay: Drug level in Fragaria x ananassa (strawberry) leaf assessed as deposition in leaf at 100 mg/l; format: ADME
[61] = Toxicity against Aphidius colemani in strawberry leaf assessed as mortality at 5 mg/l treated as spraying after 48 hr relative to control; format: organism-based; details: in vivo
[62] = Toxicity against Aphidius colemani in kidney bean leaf assessed as mortality at 83.3 mg/l treated as spraying after 48 hr relative to control; format: organism-based; details: in vivo, other: spraying
Leaf [63] = assay: Drug level in Cucumis sativus (cucumber) leaf assessed as deposition in leaf at 100 mg/l; format: ADME
[64] = Toxicity against Aphidius colemani in cucumber leaf assessed as mortality at 20 mg/l treated as spraying after 48 hr relative to control; format: organism-based; details: in vivo
[65] = Toxicity against Aphidius colemani assessed as mortality at 100 mg/l, po after 24 hr; format: organism-based; details: in vivo

N#Cc1c(Cl)c(Cl)c(Cl)c(C#N)c1Cl [CHLOROTHALONIL]
mortality at 24 h [1]: 0%
Drug uptake (Aphidius colemani [2]): 25.1 ng
mortality at 24 h [3]: 0%
Drug uptake (Aphidius colemani [4]): 5.5 ng
mortality at 24 h [5]: 8.7%
mortality at 24 h [6]: 30%

CC[C@H]1CCC[C@H](O[C@H]2CC[C@H](N(C)C)[C@@H](C)O2)[C@@H](C)C(=O)C2=C[C@@H]3[C@@H](C=C(C)[C@@H]4C[C@@H](O[C@@H]5O[C@@H](C)[C@H](OC)[C@@H](OC)[C@H]5OC)C[C@@H]34)[C@@H]2CC(=O)O1.CC[C@H]1CCC[C@H](O[C@H]2CC[C@H](N(C)C)[C@@H](C)O2)[C@@H](C)C(=O)C2=C[C@@H]3[C@@H](C=C[C@@H]4C[C@@H](O[C@@H]5O[C@@H](C)[C@H](OC)[C@@H](OC)[C@H]5OC)C[C@@H]34)[C@@H]2CC(=O)O1
Drug uptake (Leaf [7]): 0.044%
mortality at 24 h [8]: 27.7%
mortality at 48 h [9]: 0%
Drug uptake (Leaf [10]): 0.003%
Drug uptake (Leaf [11]): 0.022%
concentration at 120 h [12]: 38800 ng/g
mortality at 48 h [13]: 98.2%
mortality at 24 h [14]: 0%
mortality at 24 h [15]: 91.3%
Drug uptake (Leaf [16]): 0.177%
mortality at 24 h [17]: 96.9%
mortality at 24 h [18]: 90%
mortality at 24 h [19]: 4%
mortality at 24 h [20]: 48.3%
mortality at 48 h [21]: 0%
mortality at 24 h [22]: 3.3%
mortality at 48 h [23]: 21.4%
Drug uptake (Leaf [24]): 0.023%
mortality at 24 h [25]: 0%
mortality at 24 h [26]: 100%
concentration at 720 h [27]: 11400 ng/g
mortality at 24 h [28]: 0%
mortality at 24 h [29]: 3.3%
mortality at 48 h [30]: 55.9%
Drug uptake (Leaf [31]): 0.022%
mortality at 48 h [32]: 8.9%
Drug uptake (Leaf [33]): 2.37%
mortality at 48 h [34]: 10%
concentration at 480 h [35]: 23000 ng/g
Drug uptake (Leaf [36]): 2.108%
Drug uptake (Leaf [37]): 0.004%
mortality at 48 h [38]: 0%
mortality at 24 h [39]: 4.3%
Drug uptake (Leaf [40]): 0.025%
mortality at 24 h [41]: 74.4%
Drug uptake (Aphidius colemani [42]): 3.63 ng
mortality at 24 h [43]: 4%
mortality at 24 h [44]: 90%
mortality at 24 h [45]: 100%
mortality at 48 h [46]: 0%
mortality at 48 h [47]: 97.8%
mortality at 24 h [48]: 95.8%
mortality at 48 h [49]: 100%
mortality at 48 h [50]: 0%
Drug uptake (Leaf [51]): 0.219%
concentration at 960 h [52]: 9200 ng/g
mortality at 24 h [53]: 100%
mortality at 24 h [54]: 3.3%
mortality at 24 h [55]: 62%
mortality at 48 h [56]: 95.1%
mortality at 48 h [57]: 93.6%
concentration at 240 h [58]: 28800 ng/g
mortality at 48 h [59]: 100%
Drug uptake (Leaf [60]): 1.145%
mortality at 48 h [61]: 17.2%
mortality at 48 h [62]: 100%
Drug uptake (Leaf [63]): 0.93%
mortality at 48 h [64]: 86.7%
mortality at 24 h [65]: 93.3%

— ChEMBL document CHEMBL3044647, “Tests for Evaluating the Side Effects of Chlorothalonil (TPN) and Spinosad on the Parasitic Wasp (Aphidius colemani)” (J Pestic Sci, 2005)
